{"source": "paper PMC8510358", "about": "“Common Shortcomings in Study on Radiopharmaceutical Design Research: A Case Study of ^99mTc-Labelled Methotrexate” (Molecules, 2021)", "origin": "cited, not measured here", "system": "folate receptors", "parameters": "method as in PMID 23851396", "conditions": "in comparison to folic acid (FA); ref [3]", "data": [{"smiles": "CN(Cc1cnc2nc(N)nc(N)c2n1)c1ccc(C(=O)N[C@@H](CCC(=O)O)C(=O)O)cc1", "note": "[MTX, Methotrexate]", "values": [{"measurement": "affinity to folate receptors", "result": "noticeably lower"}]}]}
